The numbers were not newly measured in patent US8758740B2, “Composition for promoting ketone body production” (Earthus, Inc, priority 2007, dated 2014), which cites them from elsewhere.

For data set [1] the following is noted: dog.
[2] abbreviates: single oral bolus, 10 g of the cyclic trimer.

Like-named read-outs stand apart in the source and are kept apart here.

Regarding `C[C@@H]1CC(=O)O[C@H](C)CC(=O)O[C@H](C)CC(=O)O1` [cyclic trimer], in data set [1] (meat with 23.5 g cyclic trimer four times over 9 hours, after the third administration (at 6 hours)), the “blood ketone body level” value is 30 times of the normal level. Besides, in data set [1] (meat with 23.5 g cyclic trimer four times over 9 hours, within 30 minutes from the first administration), the “blood hydroxybutyric acid level” value is “about 50 times of the normal level”. Also, in data set [1] (setting [2]), the “highest blood hydroxybutyric acid level” value was “more than 5 times of the normal level” and the “time of the highest blood hydroxybutyric acid level from the administration” value was 90 min. Under “80 minutes after oral administration of diet containing 11 wt % of the trimer”, the “blood level of ketone bodies” value was 1.8 times of the normal level. In addition, the “blood level of ketone bodies” value (150 minutes after oral administration of diet containing 11 wt % of the trimer) was 2.4 times of the normal level.
